Assay results: patent publication US20060142337A1, “Piperidine derivative and use thereof” (priority 2004, published 2006)

Legend:
[1] = test system: urethane anesthetized male guinea pigs; assay: Bladder capacity increasing action in urethane anesthetized guinea pigs; type: in vivo, guinea pig; conditions: for Changes in bladder capacity (vs before administration, %): mean ± S.E.M.
Protocol: Bladder capacity increasing activity of substance P receptor antagonist (bladder capacity increasing action in urethane anesthetized guinea pigs)
A urinary frequency/urine incontinence suppressing effect of a substance having a substance P receptor antagonistic action was shown in terms of the ability to increase bladder capacity of urethane anesthetized male guinea pigs. After emptying the bladder by suction, saline warmed to 39° C. is infused into the bladder at a constant rate (0.3 mL/min.), until voiding. This procedure was repeated to confirm stable bladder capacity (amount of saline injected before induction of voiding). After confirming a stable response, a compound dissolved in DMSO was intravenously administered and the action was measured. Changes in the bladder capacity after drug administration were measured.

substance P receptor = target: T1, substance P receptor (Homo sapiens, UniProt P25103); assay: Radioligand receptor binding inhibitory activity using receptor from human lymphoblast cells (IM-9); conditions: [125I]-BHSP binding, receptor from IM-9 cells, 25 C, 30 min
T1 construct: endogenous in cells; host or cells: IM-9 human lymphoblast cells (membrane preparation)
Protocol: Radioligand receptor binding inhibitory activity (Binding inhibitory activity using receptor from human lymphoblast cells (IM-9))
The method of M. A. Cascieri et al., “Molecular Pharmacology 42, p. 458 (1992)” was modified and used. The receptor was. prepared from human lymphoblast cells (IM-9). IM-9 cells (2×10^5 cells/mL) were incubated for 3 days (one liter), which was then subjected to centrifuge for 5 min. at 500×G to obtain cell pellets. The obtained pellets were washed once with phosphate buffer (Flow Laboratories, CAT. No. 28-103-05), which were then homogenized using Polytron homogenizer (“Kinematika”, Germany) in 30 mL of 50 mM Tris-HCl buffer (pH 7.4) containing 120 mM sodium chloride, 5 mM potassium chloride, 2 μg/mL chymostatin, 40 μg/mL bacitracin, 5 μg/mL phosphoramidon, 0.5 mM phenylmethylsulfonyl fluoride, 1 mM ethylenediamine tetra-acetate, which was subjected to centrifuge at 40,000×G for 20 min. The residue was washed twice with 30 mL of the buffer, which was then preserved frozen (−80° C.) as a specimen of the receptor.
The specimen was suspended in a reaction buffer (50 mM Tris-HCl buffer (pH 7.4), 0.02% bovine serum albumin, 1 mM phenylmethylsulfonyl fluoride, 2 μg/mL chymostatin, 40 μg/mL bacitracin and 3 mM manganese chloride) to have protein in the concentration of 0.5 mg/mL of protein and 100 μL portion of the suspension was used in the reaction. After addition of the sample and ^125]-BHSP (0.46 KBq), the reaction was allowed to proceed in 0.2 mL of reaction buffer at […] for 30 min. The amount of nonspecific binding was determined by adding substance P at a final concentration of 2×10^−6 M.
After the reaction, using a cell harvester (290 PHD, Cambridge Technology, Inc, U.S.A.), filtration was carried out through a glass filter (GF/B, Whatman, U.S.A.), which was immersed in 0.1% polyethyleneimine for 24 hrs. and dried. After washing three times with 250 μL of 50 mM Tris-HCl buffer (pH 7.4) containing 0.02% bovine serum albumin, the radioactivity remaining on the filter was. determined with a gamma counter.
The antagonistic activity of each compound obtained in Examples was determined in terms of the concentration necessary to cause 50% inhibition (IC50 value) under the above-described conditions, and the results were shown in Table 14.
The radio ligand means substance P labeled with [^125I].

T1 sequence (P25103 whole entry): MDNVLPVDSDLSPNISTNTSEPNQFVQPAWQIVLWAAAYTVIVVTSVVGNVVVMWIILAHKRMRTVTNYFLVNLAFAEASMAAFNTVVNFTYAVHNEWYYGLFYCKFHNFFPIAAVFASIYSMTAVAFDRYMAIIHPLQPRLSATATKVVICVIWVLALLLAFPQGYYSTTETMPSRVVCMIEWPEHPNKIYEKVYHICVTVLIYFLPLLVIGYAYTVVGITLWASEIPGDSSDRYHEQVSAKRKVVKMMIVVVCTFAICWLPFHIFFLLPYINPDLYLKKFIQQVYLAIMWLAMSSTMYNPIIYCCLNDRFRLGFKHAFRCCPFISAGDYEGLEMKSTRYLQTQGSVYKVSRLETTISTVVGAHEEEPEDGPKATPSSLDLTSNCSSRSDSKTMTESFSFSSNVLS

## C[C@H](O[C@H]1CCNC[C@H]1c1ccccc1)c1cc(C(F)(F)F)cc(C(F)(F)F)c1.Cl
other
  melting point: 150 to 152 °C

## CCC(=O)N[C@H]1CC[C@H](C(=O)N2CC[C@H](O[C@H](C)c3cc(C(F)(F)F)cc(C(F)(F)F)c3)[C@H](c3ccccc3)C2)CC1 [Example 43, N-[trans-4-[[(3R,4S)-4-[(1R)-1-[3,5-Bis(trifluoromethyl)phenyl]ethoxy]-3-phenylpiperidin-1-yl]carbonyl]cyclohexyl]propanamide]
[1]; Table 16, 0.01 mg/kg intravenous
  Changes in bladder capacity (vs before administration, %): 20.8 ± 5.6%
[1]; Table 16, 0.03 mg/kg intravenous
  Changes in bladder capacity (vs before administration, %): 19.3 ± 4.5%
[1]; Table 16, 0.1 mg/kg intravenous
  Changes in bladder capacity (vs before administration, %): 39.9 ± 4.9 %
[1]; Table 16, 0.3 mg/kg intravenous
  Changes in bladder capacity (vs before administration, %): 55.2 ± 13.3 %
[1]; Table 16, 1 mg/kg intravenous
  Changes in bladder capacity (vs before administration, %): 74.3 ± 11.1 %
Substance P receptor
  IC50: 0.039 nM

## C[C@@H](O[C@@H]1CCNC[C@@H]1c1ccccc1)c1cc(C(F)(F)F)cc(C(F)(F)F)c1.Cl
other
  melting point: 150 to 152 °C

## C[C@@H](O[C@H]1CCN(C(=O)[C@H]2CC[C@H](NC(=O)CCCCCl)CC2)C[C@H]1c1ccccc1)c1cc(C(F)(F)F)cc(C(F)(F)F)c1 [Example 59, N-[trans-4-[[(3R,4S)-4-[(1R)-1-[3,5-Bis(trifluoromethyl)phenyl]ethoxy]-3-phenylpiperidin-1-yl]carbonyl]cyclohexyl]-5-chloropentanamide]
Substance P receptor
  IC50: 0.087 nM

## C[C@@H](O[C@H]1CCN(C(=O)CC2NC(=O)NC2=O)C[C@H]1c1ccccc1)c1cc(C(F)(F)F)cc(C(F)(F)F)c1 (stereo partly drawn) [Example 78, 5-[2-[(3R,4S)-4-[(1R)-1-[3,5-Bis(trifluoromethyl)phenyl]ethoxy]-3-phenylpiperidin-1-yl]-2-oxoethyl]imidazolidine-2,4-dione]
Substance P receptor
  IC50: 0.096 nM

## CNC(=O)[C@H]1CC[C@H](C(=O)N2CC[C@H](O[C@H](C)c3cc(C(F)(F)F)cc(C(F)(F)F)c3)[C@H](c3ccccc3)C2)CC1 [Example 68, trans-4-[[(3R,4S)-4-[(1R)-1-[3,5-Bis(trifluoromethyl)phenyl]ethoxy]-3-phenylpiperidin-1-yl]carbonyl]-N-methylcyclohexanecarboxamide]
Substance P receptor
  IC50: 0.094 nM

## COC(=O)N[C@H]1CC[C@H](C(=O)N2CC[C@H](O[C@H](C)c3cc(C(F)(F)F)cc(C(F)(F)F)c3)[C@H](c3ccccc3)C2)CC1 [Example 61, Methyl trans-4-[[(3R,4S)-4-[(1R)-1-[3,5-bis(trifluoromethyl)phenyl]ethoxy]-3-phenylpiperidin-1-yl]carbonyl]cyclohexylcarbamate]
Substance P receptor
  IC50: 0.098 nM

## CC(=O)N1CCC(C(=O)N2CC[C@H](O[C@H](C)c3cc(C(F)(F)F)cc(C(F)(F)F)c3)[C@H](c3ccccc3)C2)CC1 [Example 36, (3R,4S)-1-[(1-Acetylpiperidin-4-yl)carbonyl]-4-[(1R)-1-[3,5-bis(trifluoromethyl)phenyl]ethoxy]-3-phenylpiperidine]
Substance P receptor
  IC50: 0.026 nM

## C[C@@H](O[C@H]1CCN(C(=O)C2CC(=O)NC(=O)C2)C[C@H]1c1ccccc1)c1cc(C(F)(F)F)cc(C(F)(F)F)c1 [Example 76, 4-[[(3R,4S)-4-[(1R)-1-[3,5-Bis(trifluoromethyl)phenyl]ethoxy]-3-phenylpiperidin-1-yl]carbonyl]piperidine-2,6-dione]
Substance P receptor
  IC50: 0.084 nM

## C[C@@H](O[C@H]1OCCN(Cc2n[nH]c(=O)[nH]2)[C@H]1c1ccc(F)cc1)c1cc(C(F)(F)F)cc(C(F)(F)F)c1 [MK-869, 5-[[(2R,3S)-2-[(1R)-1-[3,5-bis(trifluoromethyl)phenyl]ethoxy]-3-(4-fluorophenyl)-4-morpholinyl]methyl]-1,2-dihydro-3H-1,2,4-triazol-3-one, reference compound]
[1]; Table 15, 0.1 mg/kg intravenous
  Changes in bladder capacity (vs before administration, %): 14.7 ± 4.8%
[1]; Table 15, 0.3 mg/kg intravenous
  Changes in bladder capacity (vs before administration, %): 49.5 ± 10.3 %
[1]; Table 15, 1 mg/kg intravenous
  Changes in bladder capacity (vs before administration, %): 71.2 ± 16.9 %
[1]; intravenous administration, urethane anesthetized guinea pigs
  voiding pressure: without affecting the voiding pressure

## CCC(=O)N1CCC(NC(=O)N2CC[C@H](O[C@H](C)c3cc(C(F)(F)F)cc(C(F)(F)F)c3)[C@H](c3ccccc3)C2)CC1 [Example 72, (3R,4S)-4-[(1R)-1-[3,5-Bis(trifluoromethyl)phenyl]ethoxy]-3-phenyl-N-(1-propionylpiperidin-4-yl)piperidine-1-carboxamide]
Substance P receptor
  IC50: 0.091 nM

## C[C@@H](O[C@H]1CCN(C(=O)C2CCN(C(=O)Cn3cncn3)CC2)C[C@H]1c1ccccc1)c1cc(C(F)(F)F)cc(C(F)(F)F)c1 [Example 119, (3R,4S)-4-{(1R)-1-[3,5-Bis(trifluoromethyl)phenyl]ethoxy}-3-phenyl-1-([1-(1H-1,2,4-triazol-1-ylacetyl)piperidin-4-yl]carbonyl}piperidine]
Substance P receptor
  IC50: 0.02 nM

## C[C@@H](O[C@H]1CCN(C(=O)C2CCN(C(=O)Cn3cccn3)CC2)C[C@H]1c1ccccc1)c1cc(C(F)(F)F)cc(C(F)(F)F)c1 [Example 122, (3R,4S)-4-{(1R)-1-[3,5-Bis(trifluoromethyl)phenyl]ethoxy}-3-phenyl-1-{[1-(1H-pyrazol-1-ylacetyl)piperidin-4-yl]carbonyl}piperidine]
Substance P receptor
  IC50: 0.021 nM
